Experimental data from ChEMBL document CHEMBL4368919, “Identification of the Metabolic Profile of the α-Tubulin-Binding Natural Product (-)-Pironetin” (J Med Chem, 2019).

How the values were obtained:
[1] = Stability in human serum assessed as compound remaining at 1.10 mg after 24 hrs by HPLC analysis; format: ADME, cell-free; details: read-out: Stability
[2] = Stability in mouse serum assessed as compound remaining at 1.30 ml after 24 hrs by HPLC analysis; format: ADME, cell-free; details: read-out: Stability
[3] = Stability in rat serum assessed as compound remaining after 24 hrs; format: ADME, cell-free; details: read-out: Stability
[4] = Half life in human liver microsomes in presence of NADPH regeneration system by LC-MS/MS analysis; format: ADME, Microsome
[5] = Half life in mouse liver microsomes in presence of NADPH regeneration system by LC-MS/MS analysis; format: ADME, Microsome
[6] = Half life in rat liver microsomes in presence of NADPH regeneration system by LC-MS/MS analysis; format: ADME, Microsome
[7] = Protein binding in human plasma; format: ADME, cell-free; details: read-out: PPB (converted)
[8] = Protein binding in mouse plasma; format: ADME, cell-free; details: read-out: PPB (converted)
[9] = Protein binding in rat plasma; format: ADME, cell-free; details: read-out: PPB (converted)
[10] = molecular target: Cytochrome P450 2C9 (Homo sapiens, UniProt P11712); experiment: Inhibition of CYP2C9 (unknown origin) using tolbutamide as substrate; format: ADME
[11] = molecular target: Cytochrome P450 2D6 (Homo sapiens, UniProt P10635); experiment: Inhibition of CYP2D6 (unknown origin) using dextromethorphan as substrate; format: ADME
[12] = molecular target: T1, Cytochrome P450 3A4 (Homo sapiens, UniProt P08684); experiment: Inhibition of CYP3A4 (unknown origin) using midazolam as substrate; format: ADME
[13] = molecular target: T1, Cytochrome P450 3A4; experiment: Inhibition of CYP3A4 (unknown origin) using testosterone as substrate; format: ADME
[14] = molecular target: T2, Tubulin alpha (Homo sapiens) (UniProt P0DPH7+P68366+Q71U36+P68363+Q9BQE3+Q6PEY2+A6NHL2+Q9NY65); experiment: Inhibition of tubulin alpha in human A2780 cells assessed as cell growth inhibition after 48 hrs by MTT assay; format: cell-based
[15] = molecular target: T2, Tubulin alpha (Homo sapiens); experiment: Inhibition of tubulin alpha in human A2780CP cells assessed as cell growth inhibition after 48 hrs by MTT assay; format: cell-based
[16] = Inhibition of tubulin alpha in human A2780 cells assessed as reduction in cell growth
[17] = system: 3Y1 cell line; experiment: Cell cycle arrest in rat 3Y1 cells assessed as accumulation at G2/M phase after 24 hrs by propidium iodide-staining based flow cytometry relative to (-)-Pironetin; format: ADME; details: 3y1, 24 h
[18] = Drug level in human liver microsomes treated with pironetin assessed as compound formation after 30 mins by LC-MS/MS analysis; format: ADME, Microsome; details: 0.5 h

T1 sequence (P08684 whole entry): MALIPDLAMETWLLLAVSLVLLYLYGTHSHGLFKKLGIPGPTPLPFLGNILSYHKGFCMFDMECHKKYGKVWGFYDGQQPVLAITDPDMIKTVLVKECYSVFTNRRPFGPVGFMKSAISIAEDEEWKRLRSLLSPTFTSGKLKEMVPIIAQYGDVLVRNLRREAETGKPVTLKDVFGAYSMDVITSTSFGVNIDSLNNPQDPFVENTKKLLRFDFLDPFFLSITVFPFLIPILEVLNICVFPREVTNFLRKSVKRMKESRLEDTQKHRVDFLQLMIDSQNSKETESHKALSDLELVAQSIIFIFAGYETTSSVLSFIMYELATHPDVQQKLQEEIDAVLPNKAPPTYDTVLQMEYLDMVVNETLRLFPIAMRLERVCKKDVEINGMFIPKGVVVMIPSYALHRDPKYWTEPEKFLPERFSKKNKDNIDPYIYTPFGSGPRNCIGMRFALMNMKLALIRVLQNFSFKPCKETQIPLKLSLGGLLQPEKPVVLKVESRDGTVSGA
Chain of Cytochrome P450 2D6 (P10635 whole entry): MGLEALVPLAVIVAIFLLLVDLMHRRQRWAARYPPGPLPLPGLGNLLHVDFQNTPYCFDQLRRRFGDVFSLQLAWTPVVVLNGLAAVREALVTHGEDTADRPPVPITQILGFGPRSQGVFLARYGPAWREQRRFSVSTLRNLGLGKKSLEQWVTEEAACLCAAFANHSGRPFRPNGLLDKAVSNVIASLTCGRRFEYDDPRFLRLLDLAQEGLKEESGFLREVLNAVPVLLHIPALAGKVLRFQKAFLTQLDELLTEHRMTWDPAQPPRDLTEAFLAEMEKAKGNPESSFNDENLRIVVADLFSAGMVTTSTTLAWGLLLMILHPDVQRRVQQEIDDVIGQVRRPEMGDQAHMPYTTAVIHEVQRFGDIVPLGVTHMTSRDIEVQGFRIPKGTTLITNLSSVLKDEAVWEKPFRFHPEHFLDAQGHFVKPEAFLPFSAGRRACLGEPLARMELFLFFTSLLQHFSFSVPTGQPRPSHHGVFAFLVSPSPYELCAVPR
Chain of Cytochrome P450 2C9 (P11712 whole entry): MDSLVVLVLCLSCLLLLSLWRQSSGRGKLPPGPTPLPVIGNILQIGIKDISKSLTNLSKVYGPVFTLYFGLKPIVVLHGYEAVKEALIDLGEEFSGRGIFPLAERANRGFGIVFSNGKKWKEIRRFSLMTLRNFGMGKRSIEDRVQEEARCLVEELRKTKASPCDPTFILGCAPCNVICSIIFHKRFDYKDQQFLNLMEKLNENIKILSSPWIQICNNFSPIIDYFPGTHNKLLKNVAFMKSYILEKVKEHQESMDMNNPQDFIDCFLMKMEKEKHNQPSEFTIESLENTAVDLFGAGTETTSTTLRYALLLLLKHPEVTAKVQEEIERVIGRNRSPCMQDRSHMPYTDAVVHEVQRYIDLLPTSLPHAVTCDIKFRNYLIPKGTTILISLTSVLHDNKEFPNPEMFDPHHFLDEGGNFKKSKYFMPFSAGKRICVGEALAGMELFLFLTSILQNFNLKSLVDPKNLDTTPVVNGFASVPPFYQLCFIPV

remaining at 24 h [1] [%]	remaining at 24 h [2] [%]	remaining at 24 h [3] [%]	t1/2 [4] [min]	t1/2 [5] [min]	t1/2 [6] [min]	fraction unbound [7]	fraction unbound [8]	fraction unbound [9]	inhibition (INH) [10]	inhibition (INH) [11]	inhibition (INH) [12]	inhibition (INH) [13]	SMILES	GI50 [14] [nM]	GI50 [15] [nM]	IC50 [16] [nM]	fold change (FC) [17]	Drug uptake [18]	Activity [17]
50	35	56	7	< 15	< 15	0.13	0.02	0.07	Active	Active	Active	Active	C/C=C/C[C@H](C)[C@@H](OC)[C@@H](C)[C@H](O)C[C@H]1OC(=O)C=C[C@H]1CC [PIRONETIN]	22.2	22.3	26	–	–	–
–	–	–	–	–	–	–	–	–	–	–	–	–	CC[C@@H]1C=CC(=O)O[C@@H]1C[C@@H](O)[C@H](C)[C@H](OC)[C@@H](C)C[C@@H]1O[C@H]1C (relative stereo)	218	1010	540	25	Active	–
–	–	–	–	–	–	–	–	–	–	–	–	–	C/C=C/C[C@H](C)[C@@H](O)[C@@H](C)[C@H](O)C[C@H]1OC(=O)C=C[C@H]1CC	29.6	82.3	–	–	Active	Toxic
